These results are taken from patent US20150164899A1, “INHIBITION OF ADAPTOR ASSOCIATED KINASE 1 FOR THE TREATMENT OF PAIN” (priority 2012, published 2015).

For test [1], the target named is T1, AAK1 (full-length human protein) (Homo sapiens, UniProt Q2M2I8).
T1 construct: NP_055726.2
The experiment in a line: P81 filter plate assay. Format: biochemical. Particulars: pyrazolo[1,5-a]pyrimidine-based inhibitors. The procedure:
Compounds were serially diluted into a Labcyte LDV plate (Labcyte, cat# LP-0200) using a Mutiprobe (PerkinElmer) and Biomek FX (Beckman Coulter) so that the highest compound concentration was at 96 μM. Compounds were then pinged (75 nL per well) into a Greiner 384-well reaction plate (Greiner, #781076) using an ECHO 550 Liquid Handler (Labcyte). A total of 12 μl reaction buffer (IMAP buffer containing Tween and DTT, from Molecular Devices) was then added to each well of columns 1 and 13 for the negative controls and 12 μl of 2×AAK1 (0.2 nM full-length human protein, NCBI accession no. NP_055726.2) was added to the remaining wells. Enzyme was then pre-incubated with compound for 10 minutes at RT. Reactions were initiated upon Minitrak (PerkinElmer) addition of 12 μl substrate mix containing 2× Mu2 (0.2 μM, full length human protein), 2× cold ATP (2 μM), and 1.3 μCi of hot ^33P-ATP. Reactions proceeded for one hour at RT. Meanwhile, Millipore 384-well P81 filter plates (Millipore, catalog # MZPHN0W10) were placed on a plate washer (Zoom Z W, from Titertek) and pre-wet with 50 μl 1% phosphoric acid. Kinase reactions were then stopped upon addition of 24 μl of 2% phosphoric acid to each well and the Minitrak was then used to transfer 40 μl from each well into the pre-wet Millipore 384-well P81 filter plates. Reaction mixtures were incubated for 10 minutes at RT in the P81 plates, followed by washing five times with 100 μl/well of 1% phosphoric acid using the Zoom filter washer. The bottom of each filter plate was sealed followed by addition of 20 μl Microscint 40 to each well, sealing the top of the plates with Flashplate cover, and then waiting one hour until reading on the TopCount (PerkinElmer).

Test [2] deals with T2, AAK1 (full length human) in transfected HEK293F cells (Homo sapiens, UniProt Q2M2I8).
T2 construct: expressed in transfected cells; host or cells: HEK293F
T2 sequence (Q2M2I8 1-863 isoform Q2M2I8-2): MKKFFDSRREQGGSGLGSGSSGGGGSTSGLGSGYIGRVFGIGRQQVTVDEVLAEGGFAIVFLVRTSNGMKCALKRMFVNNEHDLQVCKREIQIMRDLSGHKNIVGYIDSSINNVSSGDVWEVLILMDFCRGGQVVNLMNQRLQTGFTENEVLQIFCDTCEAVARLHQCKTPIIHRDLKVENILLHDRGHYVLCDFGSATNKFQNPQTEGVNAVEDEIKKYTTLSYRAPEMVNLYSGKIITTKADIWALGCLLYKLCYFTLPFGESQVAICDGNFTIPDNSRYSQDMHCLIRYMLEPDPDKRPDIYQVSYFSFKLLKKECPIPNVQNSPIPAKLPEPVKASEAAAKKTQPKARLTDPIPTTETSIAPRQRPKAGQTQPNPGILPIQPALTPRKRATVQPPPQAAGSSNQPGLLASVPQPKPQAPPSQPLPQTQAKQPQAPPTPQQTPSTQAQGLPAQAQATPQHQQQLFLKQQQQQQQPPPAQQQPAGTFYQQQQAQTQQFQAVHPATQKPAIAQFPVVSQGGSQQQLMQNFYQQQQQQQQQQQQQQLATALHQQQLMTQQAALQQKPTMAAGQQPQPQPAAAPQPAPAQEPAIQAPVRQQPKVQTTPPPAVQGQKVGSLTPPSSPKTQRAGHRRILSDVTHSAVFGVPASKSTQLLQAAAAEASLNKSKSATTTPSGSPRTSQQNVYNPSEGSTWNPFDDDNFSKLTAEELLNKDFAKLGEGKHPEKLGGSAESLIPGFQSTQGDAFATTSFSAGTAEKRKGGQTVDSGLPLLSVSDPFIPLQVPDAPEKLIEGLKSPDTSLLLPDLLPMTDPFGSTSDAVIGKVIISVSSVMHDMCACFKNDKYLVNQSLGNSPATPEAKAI
The experiment in a line: HEK281 cell-based assay (phospho-mu2 Western blot). As to conditions: HEK281 cell-based assay; pyrazolo[1,5-a]pyrimidine-based inhibitors; read-out: CBA IC50. The procedure: HEK293F cells were cultured in media containing DMEM (Gibco, cat. #11965), 10% FBS (SAFC Biosciences, cat. #12103C), 1×GPS (glutamine, penicillin and streptomycin). On day one, cells were plated on a 10 cm dish so that they are ˜80% confluent at time of transfection. Roughly 12 million cells were in a 10 cm dish at time of transfection. On day two, each dish was transfected with 48 ug DNA and 144 ul Lipofectamine 2000 (Invitrogen, cat.#11668-019). The DNA was comprised of a mixture (per 10 cm dish) containing 3 ug AAK1/HA/pIRES (full length human, NCBI accession no. NP_055726.2), 45 μg Flag/AP2MI/pcDNA (full length human), and 1.5 ml OPTI-MEM. The Lipofectamine 2000 is made up of a mixture (per 10 cm dish) containing 144 μl Lipofectamine 2000 and 1.5 ml OPTI-MEM. Each mixture was transferred to individual 15 ml tubes and incubated at RT for 5 minutes, and then the two mixes were combined and incubated at RT for 20 minutes. Growth media was then aspirated from each 10 cm plate and replaced with 10 ml of DMEM+10% FBS (no GPS). Finally, 3 ml DNA/Lipofectamine mix was added to each 10 cm dish and mix gently followed by incubate of plate overnight at 37° C. and 5% CO2.
On day three, compounds were diluted in 100% DMSO at 1000× final concentration, followed by 3-fold serial dilutions for a total of 5 concentrations tested. Four compounds were tested per 10 cm dish. One ul of each compound dilution was then pipetted into a deep-well, 96-well plate, followed by addition of 500 μl DMEM+0.5% FBS into each well for a 2× final concentration of each compound. Cells were resuspended in a 10 cm dish by simple pipetting (HEK293 cells come off the plate that easy at this point) and then transferred to a 50 ml conical tube and pelleted by centrifugation at 1000 rpm for 5 min. Cell pellets were then resuspended in 2.75 ml DMEM+0.5% FBS per 10 cm dish and 100 μl of cell suspension transferred into each well of 96-well TC plate. Finally, 100 μl of 2× compound diluted in DMEM+0.5% FBS was then added into wells containing cell suspension for a 1× final concentration. Plates were then incubated at 37° C. and 5% CO2 for 3 hours followed by transferring of cell suspensions from each well into 12-tube PCR strips. The PCR strips were spun in a tip rack at 1000 rpm for 5 minutes to pellet cells and media was then removed by pipetting without disturbing the cell pellet.
To prepare for Western Blot analysis, cell pellets were resuspend in 40 ul 1×LDS-PAGE sample buffer (Invitrogen, cat.# NP0008)+2× Halt phophatase and protease inhibitor cocktail (Thermo Scientific, cat.#1861284), followed by sonicating each with microtip sonicator set at 5 for 8-10 seconds. Five ul of 10× NuPage Sample Reducing Agent (with […]) was to each sample followed by heat denaturing at 70 C. for 10 min on PCR machine. A total of 10 μl per sample was loaded into each lane of a 4-20% Tris-Glycine Criterion 26-well gel (Biorad, cat.#345-0034) for the phospho-mu2 blot and 10 μl per lane in a 4-12% Bis-Tris (+MES buffer) NuPAGE 26-well gel (Invitrogen, cat.# WG1403BX10) for the mu2 blot. For controls, 2 ng of phospho-mu2 or 20 ng mu2/Flag proteins were loaded in the last well of each gel. After SDS-PAGE, samples on each gel were transferred to PVDF membrane using an iBlot and membranes were blocked for one hour in TBST+5% milk, followed by wash 3× for 5-10 min with TBST. Criterion gels were probed with rabbit anti-phospho-mu2 (1:5000; a rabbit polyclonal antibody produced by New England Peptide and affinity purified at Lexicon) in TBST+5% BSA, whereas, NuPAGE gels were probed with mouse anti-Flag (1:500; Sigma, cat.# F1804) in TBST+5% milk, and these primary antibodies were incubated overnight at 4° C. on a rocker.
For orientation: In western blotting, separated proteins are transferred to a membrane and probed.

Test [3] relates to formalin-induced paw flinching. Kind of test: formalin paw test. It counts as in vivo. Particulars: 60 mpk ip, mice. On the procedure: See example 5.4.1, above. The same test was used to confirm that the administration of an AAK1 inhibitor can also affect pain response.
Mice were tested for nociception with Automatic Nociception Analyzers (purchased from the Ozaki lab at University of California, San Diego). A metal band was placed around the left hind paw of each mouse with superglue 30 minutes prior to testing. After the 30-minute acclimation period, 20 μl of 5% formalin was subcutaneously injected in the dorsal surface of the left hind paw. Mice were individually housed in cylindrical chambers for 45 minutes. Fresh 5% formalin solution was prepared by diluting formaldehyde (Formalde-fresh 20%, Fisher Scientific, Fair Lawn, N.J.) with distilled water. Investigatory compounds were administered 30 minutes prior to formalin injection.
A computer software recorded flinches per minute, total flinches for Phase I (acute phase=first 8 minutes), and total flinches for Phase II (tonic phase between 20-40 minutes) through an electromagnetic field. See Yaksh T L, Ozaki G, McCumber D, Rathbun M, Svensson C, Malkmus S, Yaksh M C. An automated flinch detecting system for use in the formalin nociceptive bioassay. J Appl Physiol., 2001; 90:2386-402.
Various compounds of the invention were tested at different doses. Gabapentin and pregabalin were used as positive controls. Results are shown below in Table 2, wherein “*” means an effect equal to or greater than 50 percent of that of gabapentin at 200 mpk, “**” means an effect equal to or greater than 100 percent of that of gabapentin at 200 mpk, “sc” means subcutaneous administration, “ip” means in intraperitoneal administration, and “po” means oral administration.

T1 sequence (Q2M2I8 1-863 isoform Q2M2I8-2): as above

By IC50 is commonly meant the concentration needed to halve the response being measured. For the compound `COc1ncccc1-c1cnn2ccc(N3CCN(C(=O)NC(C)(C)C)CC3)nc12`, the IC50 was not above 10 nM in test [1] and not above 100 nM in test [2].
Take `COc1ncccc1-c1cnn2ccc(N3CCN(C(=O)N(C)C(C)(C)C)CC3)nc12`: the results for the IC50 in test [1] and in test [2] were not above 10 nM and not above 100 nM, respectively.
As for `COc1ncccc1-c1cnn2ccc(N3CCN(C(=O)N(C)C(C)C)CC3)nc12`, the IC50 is not above 10 nM in test [1] and not above 100 nM in test [2].
For `COc1ncccc1-c1cnn2ccc(N3CCN(C(=O)NC(C)C)CC3)nc12`, in that order: not above 10 nM and not above 10 nM.
On to `COc1ncccc1-c1cnn2ccc(N3CCN(C(=O)N4CCCC4)CC3)nc12`, for which the IC50 in test [1] is not above 10 nM; in test [2], not above 100 nM.
Regarding `COc1ccccc1-c1cnn2ccc(NC[C@@H]3CCCN3C(=O)CC(C)(C)C)nc12`, the IC50 in test [1] and in test [2] was not above 10 nM throughout.
Take `CCCC(=O)N1CCC[C@H]1CNc1ccn2ncc(-c3ccccc3OC)c2n1`: the IC50 in test [1] was not above 10 nM; in test [2] it was not above 100 nM.
Take `COc1cnccc1-c1cnn2ccc(NC[C@@H]3CCC(=O)N3CCC(C)(C)C)nc12`: the IC50 is not above 10 nM in test [1] and not above 100 nM in test [2].
For the compound `CC(C)(C)NC(=O)N1CCC[C@H]1CNc1ccn2ncc(Br)c2n1`, the IC50 in test [1] and in test [2] was not above 10 nM throughout.
`COc1ccccc1-c1cnn2ccc(NC[C@@H]3CCCN3C(=O)CC(F)(F)F)nc12`: the IC50 in test [1] was not above 10 nM; in test [2], not above 100 nM.
Turning to `O=C(CC(F)(F)F)N1CCC[C@H]1CNc1ccn2ncc(-c3ccncc3)c2n1`, the concentration for half-maximal inhibition (IC50) in test [1] is not above 10 nM; in test [2] it was not above 100 nM.
Turning to `COc1ncccc1-c1cnn2ccc(N3CC[C@H](N(C)C(=O)CC(F)(F)F)C3)nc12`, the IC50 in test [1] and in test [2] was not above 10 nM each time.
Turning to `CN(C(=O)CC(F)(F)F)[C@H]1CCN(c2ccn3ncc(-c4ccccn4)c3n2)C1`, the IC50 in test [1] and in test [2] was not above 10 nM throughout.
With `CC(C)(C)CCN1C(=O)CC[C@H]1CNc1ccn2ncc(Br)c2n1`, the results for the 50% inhibitory concentration (IC50) in test [1] and in test [2] were not above 10 nM and not above 100 nM, respectively.
As to `CCCC(=O)N(C)[C@H]1CCN(c2ccn3ncc(-c4ccccc4OC)c3n2)C1`, the IC50 is not above 10 nM in test [1] and not above 1000 nM in test [2].
For `CCCC(=O)N(C)[C@H]1CCN(c2ccn3ncc(-c4cccnc4OC)c3n2)C1`, the IC50 in test [1] is not above 10 nM; in test [2] it was not above 1000 nM.
In the case of `COc1ccccc1-c1cnn2ccc(NC[C@@H]3CCCN3C(=O)OC(C)C)nc12`, the IC50 in test [1] and in test [2] was not above 10 nM each time.
Consider `COC(=O)N1CCC[C@H]1CNc1ccn2ncc(-c3ccccc3OC)c2n1`, for which the IC50 in test [1] was not above 10 nM; in test [2], not above 100 nM.
`COCc1ccccc1-c1cnn2ccc(NC[C@@H]3CCCN3C(=O)OC(C)(C)C)nc12`: the IC50 in test [1] was not above 10 nM; in test [2], not above 100 nM.
In the case of `CC(C)(C)OC(=O)N1CCC[C@H]1CNc1ccn2ncc(-c3ccccc3O)c2n1`, the IC50 in test [1] was not above 10 nM; in test [2] it was not above 100 nM.
The matching figures for `CC(C)Oc1ccccc1-c1cnn2ccc(NC[C@@H]3CCCN3C(=O)OC(C)(C)C)nc12`: not above 10 nM and not above 10 nM.
Consider `COc1ccc(-c2cnn3ccc(NC[C@@H]4CCCN4C(=O)OC(C)(C)C)nc23)cc1`, for which the IC50 in test [1] and in test [2] was not above 10 nM throughout.
As for `COc1ccccc1-c1cnn2ccc(N3CC[C@H](N(C)C(=O)OC(C)(C)C)C3)nc12`, the IC50 is not above 10 nM in test [1] and not above 100 nM in test [2].
With `COc1cc(-c2cnn3ccc(N4CCN(C(=O)OC(C)C)CC4)nc23)c(OC)nn1`, the IC50 in test [1] and in test [2] was not above 10 nM each time.
Take `COc1ccncc1-c1cnn2ccc(N3CCN(C(=O)OC(C)C)CC3)nc12`: the IC50 in test [1] was not above 10 nM; in test [2] it was not above 100 nM.
In the case of `COc1ccc(-c2cnn3ccc(N4CCN(C(=O)OC(C)C)CC4)nc23)nc1`, the IC50 in test [1] and in test [2] was not above 10 nM in each case.
`COc1cncc(-c2cnn3ccc(N4CCN(C(=O)OC(C)C)CC4)nc23)c1`: the IC50 was not above 10 nM in test [1] and not above 100 nM in test [2].
Take `COc1ccc(-c2cnn3ccc(N4CCN(C(=O)OC(C)C)CC4)nc23)cn1`: the IC50 in test [1] was not above 10 nM; in test [2], not above 1000 nM.
For `CC(C)OC(=O)N1CCN(c2ccn3ncc(-c4ccccn4)c3n2)CC1`, the half-inhibitory concentration (IC50) in test [1] is not above 10 nM; in test [2], not above 100 nM.
As to `CC(C)OC(=O)N1CCN(c2ccn3ncc(-c4ccncc4)c3n2)CC1`, the IC50 in test [1] was not above 10 nM; in test [2] it was not above 100 nM.
The matching figures for `COC(=O)N1CCN(c2ccn3ncc(-c4cccnc4OC)c3n2)CC1`: not above 100 nM and not above 100 nM.
With `CCCCNc1ccc2ncc(-c3ccc(-c4nnn[nH]4)cc3)n2n1` [3-(4-(1H-tetrazol-5-yl)phenyl)-N-butylimidazo[1,2-b]pyridazin-6-amine], the Effect result in test [3] is reported as “** (an effect equal to or greater than 100% of that of gabapentin at 200 mpk)”.
